Measurements reported in US20230057979A1, “MEDICINAL COMPOSITIONS FOR CARBON DIOXIDE BASED METERED DOSE INHALERS” (KINDEVA DRUG DELIVERY L.P., priority 2020, published 2023).

Experiments:
[1] = stated in description, cited from earlier work
[2] = Salbutamol Sulphate Aerodynamic Particle Size Distribution (APSD) by NGI; assay type: physicochemical; conditions: Example 7 formulation, NGI 30 L/min, six actuations, average of three canisters
Protocol: APSD was determined using a Next Generation Impactor as described in the BDP APSD test method. Prior to testing, the inhaler was actuated five times to ensure the valve was primed after which the valve stem was cleaned and dried. The inhaler was then attached to the NGI with the use of an appropriate coupler and actuated six times into the NGI. The Salbutamol sulphate was recovered from each component using a solution of acetonitrile/0.1% phosphoric acid in water (9:1 v/v) using a volume of 20 mL for the throat/coupler and 10 mL for all other components. Recovery was performed using a rocker station (Gentle Rocker, Copley Scientific Limited UK). Samples were assayed by reversed phase gradient liquid chromatography using UV detection (HP1100, Agilent Technologies UK Limited), with the parameter settings in Table 2 and Table 3. [table] [table]

[3] = Beclomethasone Dipropionate (BDP) Aerodynamic Particle Size Distribution (APSD) by NGI; assay type: physicochemical; conditions: Example 6 formulation, NGI 30 L/min, five actuations, average of three canisters
Protocol: APSD was determined using a Next Generation Impactor (NGI Model 170, Copley Scientific Limited UK) at a flow rate of 30±0.5 L/min drawn using a high-capacity pump (HCP5, Copley Scientific Limited, UK) the flow rate determined using a digital flow meter (Model 4043, TSI Instruments). The filter stage was fitted with a Whatman grade 934-AH glass microfiber filter. Units were tested at the start of life using a 3M Mark 6 actuator (3M, Loughborough, UK) with an exit orifice diameter of 0.25 mm and a jet length of 0.8 mm. Prior to testing, the inhaler was actuated five times to ensure the valve was primed after which the valve stem was cleaned and dried. The inhaler was then attached to the NGI with the use of an appropriate coupler and actuated five times into the NGI. The BDP was recovered from each component using methanol (HPLC grade, Thermo Fisher Scientific, Inc., Waltham, Mass.) using a volume of 10 mL for the stem/can, 30 mL for the throat/coupler, 5 mL for cups 1 to 4 and 20 mL for all other components. Recovery was performed using a rocker station (Gentle Rocker 4515, Copley Scientific Limited UK). Samples were assayed by reversed phase isocratic liquid chromatography using UV detection (Acquity H-Class UPLC, Waters Limited) with the parameter settings presented in Table 1. [table]

## O=C=O [carbon dioxide]
[1]; pure liquid propellant, about 20 °C
  vapor pressure at about 20° C.: about 57 bar
[1]; pure liquid propellant, about 40 °C
  vapor pressure at about 40° C.: about 80 bar
[1]; pure propellant
  liquid to supercritical phase transition temperature or critical point temperature: about 31 °C

## salbutamol sulphate [SS]
[2]
  SS deposited: Actuator: 7.9 µg
  SS deposited: Cup 1: 0.20 µg
  SS deposited: Cup 2: 0.07 µg
  SS deposited: Cup 3: 0.45 µg
  SS deposited: Cup 4: 2.5 µg
  SS deposited: Cup 5: 3.7 µg
  SS deposited: Cup 6: 2.1 µg
  SS deposited: Cup 7: 0.60 µg
  SS deposited: Filter: 0.05 µg
  SS deposited: MOC: 0.29 µg
  SS deposited: Stem: 1.4 µg
  SS deposited: Throat/Coupler: 54.2 µg

## CCC(=O)OCC(=O)[C@@]1(OC(=O)CC)[C@@H](C)C[C@H]2[C@@H]3CCC4=CC(=O)C=C[C@]4(C)[C@@]3(Cl)[C@@H](O)C[C@@]21C [BDP, beclomethasone dipropionate]
[3]
  BDP deposited: Actuator: 10.8 µg
  BDP deposited: Cup 1: 0.3 µg
  BDP deposited: Cup 2: 0.1 µg
  BDP deposited: Cup 3: 0.1 µg
  BDP deposited: Cup 4: 0.8 µg
  BDP deposited: Cup 5: 4.3 µg
  BDP deposited: Cup 6: 7.4 µg
  BDP deposited: Cup 7: 4.7 µg
  BDP deposited: Filter: 1.6 µg
  BDP deposited: MOC: 5.9 µg
  BDP deposited: Stem: 3.6 µg
  BDP deposited: Throat/Coupler: 59.0 µg
